According to patent publication US20050101595A1, “N-containing cycloalkyl-substituted amino-thiazole derivatives and pharmaceutical compositions for inhibiting cell proliferation and methods for their use” (PFIZER INC., priority 2003, published 2005):

tested on: HCT-116 cell line; experiment: Inhibition of cell growth, tetrazolium salt (MTT) assay; type: cell-based; details: HCT116 cells; compound at 250 nM; 0.25 µM
Experimental: Inhibition of Cell Growth: Assessment of Cytotoxicity:
Inhibition of cell growth was measured using the tetrazolium salt assay, which is based on the ability of viable cells to reduce 3-(4,5-dimethylthiazol-2-yl)-2,5-[2H]-diphenyltetrazolium bromide (MTT) to formazan (Mossman, Journal of Immunological Methods, vol. 65 (1983), pp. 55-58). The water-insoluble purple formazan product was then detected spectrophotometrically. The HCT-116 cell line was used as a representative cancer cell line and grown in 96-well plates. Cells were plated in McCoy's 5A Medium at a volume of 135 μl/well. Plates were incubated for four hours before addition of inhibitor compounds. Different concentrations of inhibitor compounds were added in 0.5% (v/v) dimethylsulfoxide (15 μLuwell), and cells were incubated at 37° C. (5% CO2) for three to five days. At the end of the incubation, MTT was added to a final concentration of 0.2 mg/mL, and cells were incubated for 4 hours more at 37° C. After centrifugation of the plates and removal of medium, the absorbance of the formazan (solubilized in dimethylsulfoxide) was measured at 540 nm. […] All results were compared to control cells treated only with 0.5% (v/v) dimethylsulfoxide.

SMILES | % Inhibition HCT116 @ 250 nM [%]
Nc1nc(NC2CCN(S(=O)(=O)CCNCc3cccnc3)CC2)sc1C(=O)c1c(F)cccc1F [Example S56] | 73
N#CCNCCS(=O)(=O)N1CCC(Nc2nc(N)c(C(=O)c3c(F)cccc3F)s2)CC1 [Example S160] | 30

same assay, conditions: Homo sapiens, HCT-116, 120 h, first HCT-116 column (c4); MTT, three to five days; read-out: HCT-116 IC50

SMILES | IC50 [µM]
C[C@H](NCCS(=O)(=O)N1CCC(Nc2nc(N)c(C(=O)c3c(F)cccc3F)s2)CC1)c1ccccc1 [Example K47] | 0.1
CC(C)(NCCS(=O)(=O)N1CCC(Nc2nc(N)c(C(=O)c3c(F)cccc3F)s2)CC1)c1ccccc1 [Example K49, (4-Amino-2-{1-[2-(1-methyl-1-phenyl-ethylamino)-ethanesulfonyl]-piperidin-4-ylamino}-thiazol-5-yl)-(2,6-difluoro-phenyl)-methanone] | 0.18
Nc1nc(NC2CCN(S(=O)(=O)CCN(Cc3ccccc3)CC3CC3)CC2)sc1C(=O)c1c(F)cccc1F [Example K53, (4-Amino-2-{1-[2-(benzyl-cyclopropylmethyl-amino)-ethanesulfonyl]-piperidin-4-ylamino}-thiazol-5-yl)-(2,6-difluoro-phenyl)-methanone] | 0.23
Nc1nc(NC2CCN(S(=O)(=O)CCNCc3cccc(Cl)c3)CC2)sc1C(=O)c1c(F)cccc1F [Example K52, (4-Amino-2-{1-[2-(3-chloro-benzylamino)-ethanesulfonyl]-piperidin-4-ylamino}-thiazol-5-yl)-(2,6-difluoro-phenyl)-methanone] | 0.11

same assay, conditions: Homo sapiens, HCT-116, 120 h, second HCT-116 column (c5); MTT, three to five days; read-out: HCT-116 IC50

SMILES | IC50 [µM]
C[C@H](NCCS(=O)(=O)N1CCC(Nc2nc(N)c(C(=O)c3c(F)cccc3F)s2)CC1)c1ccccc1 [Example K47] | 0.25
CC(C)(NCCS(=O)(=O)N1CCC(Nc2nc(N)c(C(=O)c3c(F)cccc3F)s2)CC1)c1ccccc1 [Example K49, (4-Amino-2-{1-[2-(1-methyl-1-phenyl-ethylamino)-ethanesulfonyl]-piperidin-4-ylamino}-thiazol-5-yl)-(2,6-difluoro-phenyl)-methanone] | 0.5
Nc1nc(NC2CCN(S(=O)(=O)CCN(Cc3ccccc3)CC3CC3)CC2)sc1C(=O)c1c(F)cccc1F [Example K53, (4-Amino-2-{1-[2-(benzyl-cyclopropylmethyl-amino)-ethanesulfonyl]-piperidin-4-ylamino}-thiazol-5-yl)-(2,6-difluoro-phenyl)-methanone] | 0.56
Nc1nc(NC2CCN(S(=O)(=O)CCNCc3cccc(Cl)c3)CC2)sc1C(=O)c1c(F)cccc1F [Example K52, (4-Amino-2-{1-[2-(3-chloro-benzylamino)-ethanesulfonyl]-piperidin-4-ylamino}-thiazol-5-yl)-(2,6-difluoro-phenyl)-methanone] | 0.25

same assay, conditions: Homo sapiens, HCT-116, HCT116 cells; compound at 250 nM; read-out: % Inhibition HCT116 @ 250 nM

SMILES | inhibition at 0.25 µM [%]
CSCCNCCS(=O)(=O)N1CCC(Nc2nc(N)c(C(=O)c3c(F)cccc3F)s2)CC1 [Example S133] | 18
COC[C@@H]1CCCN1CCS(=O)(=O)N1CCC(Nc2nc(N)c(C(=O)c3c(F)cccc3F)s2)CC1 [Example S42] | 12
CC(C)[C@@H](CO)NCCS(=O)(=O)N1CCC(Nc2nc(N)c(C(=O)c3c(F)cccc3F)s2)CC1 [Example S156] | 17
COCCN(CCOC)CCS(=O)(=O)N1CCC(Nc2nc(N)c(C(=O)c3c(F)cccc3F)s2)CC1 [Example S46] | 58
Nc1nc(NC2CCN(S(=O)(=O)CCNCCc3ccccc3F)CC2)sc1C(=O)c1c(F)cccc1F [Example S159] | 44
CN(CCS(=O)(=O)N1CCC(Nc2nc(N)c(C(=O)c3c(F)cccc3F)s2)CC1)CC1OCCO1 [Example S41] | 18
NC(=O)C1CCN(CCS(=O)(=O)N2CCC(Nc3nc(N)c(C(=O)c4c(F)cccc4F)s3)CC2)CC1 [Example S48] | 17
CC(C)(C)NCCS(=O)(=O)N1CCC(Nc2nc(N)c(C(=O)c3c(F)cccc3F)s2)CC1 [Example S81] | 82
COC(CN(C)CCS(=O)(=O)N1CCC(Nc2nc(N)c(C(=O)c3c(F)cccc3F)s2)CC1)OC [Example S30] | 18
Nc1nc(NC2CCN(S(=O)(=O)CCNC3CCCCC3)CC2)sc1C(=O)c1c(F)cccc1F [Example S58] | 50
Cc1ccc(CNCCS(=O)(=O)N2CCC(Nc3nc(N)c(C(=O)c4c(F)cccc4F)s3)CC2)o1 [Example S164] | 28
CC(C)C(CO)NCCS(=O)(=O)N1CCC(Nc2nc(N)c(C(=O)c3c(F)cccc3F)s2)CC1 (centres unmarked) [Example S74] | 9
COC(=O)CNCCS(=O)(=O)N1CCC(Nc2nc(N)c(C(=O)c3c(F)cccc3F)s2)CC1 [Example S129] | 25
Nc1nc(NC2CCN(S(=O)(=O)CCNC3CC3)CC2)sc1C(=O)c1c(F)cccc1F [Example S60] | 72
CC(C)(NCCS(=O)(=O)N1CCC(Nc2nc(N)c(C(=O)c3c(F)cccc3F)s2)CC1)c1ccccc1 [Example S173] | 35
CN(C)[C@@H]1CCN(CCS(=O)(=O)N2CCC(Nc3nc(N)c(C(=O)c4c(F)cccc4F)s3)CC2)C1 [Example S62] | 6
CN(C)C(=O)[C@H]1CCCN1CCS(=O)(=O)N1CCC(Nc2nc(N)c(C(=O)c3c(F)cccc3F)s2)CC1 [Example S66] | 14
CC(C)(C)N(CCO)CCS(=O)(=O)N1CCC(Nc2nc(N)c(C(=O)c3c(F)cccc3F)s2)CC1 [Example S3] | 25
Nc1nc(NC2CCN(S(=O)(=O)CCNCC(F)(F)F)CC2)sc1C(=O)c1c(F)cccc1F [Example S106] | 98
CC(C)CNCCS(=O)(=O)N1CCC(Nc2nc(N)c(C(=O)c3c(F)cccc3F)s2)CC1 [Example S111] | 54
C=C(C)CN(C)CCS(=O)(=O)N1CCC(Nc2nc(N)c(C(=O)c3c(F)cccc3F)s2)CC1 [Example S51] | 83
Nc1nc(NC2CCN(S(=O)(=O)CCN(CCO)CCO)CC2)sc1C(=O)c1c(F)cccc1F [Example S6] | 13
Nc1nc(NC2CCN(S(=O)(=O)CCNCCc3ccncc3)CC2)sc1C(=O)c1c(F)cccc1F [Example S140] | 25
Nc1nc(NC2CCN(S(=O)(=O)CCNCc3cc(F)ccc3F)CC2)sc1C(=O)c1c(F)cccc1F [Example S125] | 49
Nc1nc(NC2CCN(S(=O)(=O)CCNCC3CC3)CC2)sc1C(=O)c1c(F)cccc1F [Example S139] | 39
COC(CNCCS(=O)(=O)N1CCC(Nc2nc(N)c(C(=O)c3c(F)cccc3F)s2)CC1)OC [Example S108] | 16

SMILES | inhibition at 0.25 µM [%]
Nc1nc(NC2CCN(S(=O)(=O)CCNCc3ccccc3)CC2)sc1C(=O)c1c(F)cccc1F [Example S94] | 64
C=CCN(CC=C)CCS(=O)(=O)N1CCC(Nc2nc(N)c(C(=O)c3c(F)cccc3F)s2)CC1 [Example S32] | 69
CC(C)N(CCS(=O)(=O)N1CCC(Nc2nc(N)c(C(=O)c3c(F)cccc3F)s2)CC1)C(C)C [Example S33] | 79
CCCN(CCS(=O)(=O)N1CCC(Nc2nc(N)c(C(=O)c3c(F)cccc3F)s2)CC1)CC1CC1 [Example S1] | 36
Nc1nc(NC2CCN(S(=O)(=O)CCN3CCC[C@@H]3CO)CC2)sc1C(=O)c1c(F)cccc1F [Example S54] | 16
CN(CCS(=O)(=O)N1CCC(Nc2nc(N)c(C(=O)c3c(F)cccc3F)s2)CC1)C1CCCCC1 [Example S9] | 43
CCC(NCCS(=O)(=O)N1CCC(Nc2nc(N)c(C(=O)c3c(F)cccc3F)s2)CC1)c1ccccc1 (centres unmarked) [Example S141] | 78
CC(O)CN(CCS(=O)(=O)N1CCC(Nc2nc(N)c(C(=O)c3c(F)cccc3F)s2)CC1)CC(C)O (centres unmarked) [Example S11] | 13
CN(CCS(=O)(=O)N1CCC(Nc2nc(N)c(C(=O)c3c(F)cccc3F)s2)CC1)Cc1ccccc1 [Example S28] | 80
CN1CCCC1CCNCCS(=O)(=O)N1CCC(Nc2nc(N)c(C(=O)c3c(F)cccc3F)s2)CC1 (centres unmarked) [Example S69] | 31
Nc1nc(NC2CCN(S(=O)(=O)CCNCC(=O)NO)CC2)sc1C(=O)c1c(F)cccc1F [Example S168] | 16
Nc1nc(NC2CCN(S(=O)(=O)CCNCCc3cccnc3)CC2)sc1C(=O)c1c(F)cccc1F [Example S167] | 3
Nc1nc(NC2CCN(S(=O)(=O)CCNCCNc3ccccc3)CC2)sc1C(=O)c1c(F)cccc1F [Example S112] | 15
CC(C)N(CCNCCS(=O)(=O)N1CCC(Nc2nc(N)c(C(=O)c3c(F)cccc3F)s2)CC1)C(C)C [Example S134] | 17
CC(C)(C)CNCCS(=O)(=O)N1CCC(Nc2nc(N)c(C(=O)c3c(F)cccc3F)s2)CC1 [Example S107] | 98
CC1CN(CCS(=O)(=O)N2CCC(Nc3nc(N)c(C(=O)c4c(F)cccc4F)s3)CC2)CC(C)O1 (centres unmarked) [Example S16] | 20
Nc1nc(NC2CCN(S(=O)(=O)CCNCCc3ccccn3)CC2)sc1C(=O)c1c(F)cccc1F [Example S85] | 19
Nc1nc(NC2CCN(S(=O)(=O)CCN3CCCCC3CO)CC2)sc1C(=O)c1c(F)cccc1F (centres unmarked) [Example S13] | 24
Nc1nc(NC2CCN(S(=O)(=O)CCN3CCCC(CO)C3)CC2)sc1C(=O)c1c(F)cccc1F (centres unmarked) [Example S23] | 18
CC(C)C(NCCS(=O)(=O)N1CCC(Nc2nc(N)c(C(=O)c3c(F)cccc3F)s2)CC1)C(C)C [Example S135] | 100
CCC(COC)NCCS(=O)(=O)N1CCC(Nc2nc(N)c(C(=O)c3c(F)cccc3F)s2)CC1 (centres unmarked) [Example S146] | 42
C=CCN(C)CCS(=O)(=O)N1CCC(Nc2nc(N)c(C(=O)c3c(F)cccc3F)s2)CC1 [Example S31] | 27
Nc1nc(NC2CCN(S(=O)(=O)CCN[C@@H]3C=CCCC3)CC2)sc1C(=O)c1c(F)cccc1F [Example S170] | 15
CC(C)CCNCCS(=O)(=O)N1CCC(Nc2nc(N)c(C(=O)c3c(F)cccc3F)s2)CC1 [Example S122] | 54
CC1CCCCN1CCS(=O)(=O)N1CCC(Nc2nc(N)c(C(=O)c3c(F)cccc3F)s2)CC1 (centres unmarked) [Example S15] | 46
CC(C)(CO)NCCS(=O)(=O)N1CCC(Nc2nc(N)c(C(=O)c3c(F)cccc3F)s2)CC1 [Example S80] | 13
